Assay results from PMC5362409, “Antivascular and antitumor properties of the tubulin-binding chalcone TUB091” (Oncotarget, 2016).
pKd: −log10 of the molar value.

Molecular target: T1, αβ-tubulin (β-tubulin, colchicine site) (Bos taurus, UniProt P81947+Q6B856)
T1 construct: gene TUBB2B; calf brain tubulin; with α-tubulin
Test: fluorescence competition: displacement of TUB091 fluorescence by TUB092, giving Ka ([…] GTP)
Assay type: binding
Settings: read-out: fluorescence competition: displacement of TUB091 fluorescence by TUB092, giving

Structure (SMILES): COc1ccc(/C=C(\C)C(=O)c2cc(OC)c3c(c2)OCO3)cc1N [compound 11, (E)-3-(3’’-amino-4’’-methoxyphenyl)-1-(5’-methoxy-3’,4’-methylendioxyphenyl)-2-methylprop-2-en-1-one]
- pKd: 7.04
